Values joined by “and” are separate entries in the source; they are usually repeats but may differ in a detail not shown here. Equal entries are not always repeated.
System: Swiss mice, Sarcoma 180 sc, mean tumor weight T/C
Test: NCI In Vivo Anticancer Drug Screen. Data for tumor model Sarcoma 180 (subcutaneous) in Swiss mice
Conditions: endpoint: mean tumor weight, higher = larger tumour
In short: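 Tumor-bearing mice, transplantable tumor; readout survival or tumor size; result = T/C, treated vs vehicle control.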

[1] = dose: 44.0 mg/kg/injection, schedule: Q01DX007 (ip), vehicle: carboxymethylcellulose (CMC)
[2] = dose: 66.0 mg/kg/injection, schedule: Q01DX007 (ip), vehicle: carboxymethylcellulose (CMC)
[3] = dose: 100.0 mg/kg/injection, schedule: Q01DX007 (ip), vehicle: carboxymethylcellulose (CMC)

`C[C@]12CC[C@H]3[C@@H](CC=C4C[C@@H](OC5CCCCO5)CC[C@@]43C)[C@@H]1CC[C@@H]2O` (some centres undefined) was tested, and the T/C (dose: 25.0 mg/kg/injection, schedule: Q#A X014 (oral), vehicle: steriod suspending solution) was 95 % of control, the T/C (dose: 75.0 mg/kg/injection, schedule: Q#A X014 (oral), vehicle: steriod suspending solution) was 95 % of control and the T/C (dose: 187.5 mg/kg/injection, schedule: Q#A X014 (oral), vehicle: steriod suspending solution) was 80 % of control.

For `CN(C)C1=C(Cl)C(=O)C(=O)c2cccnc21`, the T/C (dose: 6.25 mg/kg/injection, schedule: Q01DX007 (ip), vehicle: water) was 89 % of control and the T/C (dose: 12.5 mg/kg/injection, schedule: Q01DX007 (ip), vehicle: water) was 81 % of control.

For `O=C(Nc1ccc2cc(S(=O)(=O)O)ccc2c1)c1ccc(N=Nc2c(S(=O)(=O)O)cc3cc(S(=O)(=O)O)cc(NC(=O)c4ccccc4)c3c2O)cc1`, the T/C (dose: 41.5 mg/kg/injection, schedule: Q#A X014 (ip), vehicle: methylcellulose (MC)) was 52 % of control and 61 % of control and 77 % of control and the T/C (dose: 93.5 mg/kg/injection, schedule: Q#A X014 (ip), vehicle: methylcellulose (MC)) was 44 % of control and 63 % of control.

In the case of `CC/C(=C(/CC)c1ccc(O)cc1)c1ccc(O)cc1`, the T/C (dose: 19.69 mg/kg/injection, schedule: Q01DX007 (sc), vehicle: steriod suspending solution) is reported as 54 % of control, the T/C (dose: 22.13 mg/kg/injection, schedule: Q01DX007 (sc), vehicle: steriod suspending solution) is reported as 51 % of control and the T/C (dose: 24.0 mg/kg/injection, schedule: Q01DX007 (sc), vehicle: steriod suspending solution) is reported as 51 % of control. For the same compound, the T/C (dose: 39.38 mg/kg/injection, schedule: Q01DX007 (sc), vehicle: steriod suspending solution) was 42 % of control, the T/C (dose: 44.25 mg/kg/injection, schedule: Q01DX007 (sc), vehicle: steriod suspending solution) was 60 % of control and the T/C (dose: 48.0 mg/kg/injection, schedule: Q01DX007 (sc), vehicle: steriod suspending solution) was 37 % of control. The T/C (dose: 70.8 mg/kg/injection, schedule: Q01DX007 (sc), vehicle: steriod suspending solution) was 80 % of control, the T/C (dose: 78.75 mg/kg/injection, schedule: Q01DX007 (sc), vehicle: steriod suspending solution) was 65 % of control and the T/C (dose: 96.0 mg/kg/injection, schedule: Q01DX007 (sc), vehicle: steriod suspending solution) was 30 % of control. The T/C (dose: 118.0 mg/kg/injection, schedule: Q01DX007 (sc), vehicle: steriod suspending solution) was 72 % of control, the T/C (dose: 157.5 mg/kg/injection, schedule: Q01DX007 (sc), vehicle: steriod suspending solution) was 52 % of control and the T/C (dose: 177.0 mg/kg/injection, schedule: Q01DX007 (sc), vehicle: steriod suspending solution) was 57 % of control.

`S=c1nc[nH]c2nc[nH]c12` was tested, and the T/C (dose: 3.25 mg/kg/injection, schedule: Q#A X014 (ip), vehicle: carboxymethylcellulose (CMC)) was 62 % of control, the T/C (dose: 3.62 mg/kg/injection, schedule: Q#A X014 (ip), vehicle: carboxymethylcellulose (CMC)) was 83 % of control and the T/C (dose: 6.5 mg/kg/injection, schedule: Q#A X014 (ip), vehicle: carboxymethylcellulose (CMC)) was 61 % of control. For the same compound, the T/C (dose: 7.25 mg/kg/injection, schedule: Q#A X014 (ip), vehicle: carboxymethylcellulose (CMC)) was 56 % of control, the T/C (dose: 7.5 mg/kg/injection, schedule: Q01DX007 (ip), vehicle: other) was 102 % of control and the T/C (dose: 10.4 mg/kg/injection, schedule: Q01DX007 (ip), vehicle: carboxymethylcellulose (CMC)) was 51 % of control. For the same compound, the T/C (dose: 13.0 mg/kg/injection, schedule: Q01DX007 (ip), vehicle: carboxymethylcellulose (CMC)) was 66 % of control, the T/C (dose: 13.0 mg/kg/injection, schedule: Q#A X014 (ip), vehicle: carboxymethylcellulose (CMC)) was 28 % of control and the T/C (dose: 14.5 mg/kg/injection, schedule: Q01DX007 (ip), vehicle: carboxymethylcellulose (CMC)) was 73 % of control and 83 % of control. The T/C (dose: 14.5 mg/kg/injection, schedule: Q#A X014 (ip), vehicle: carboxymethylcellulose (CMC)) was 48 % of control, the T/C (dose: 15.0 mg/kg/injection, schedule: Q01DX007 (ip), vehicle: other) was 101 % of control and the T/C (dose: 15.0 mg/kg/injection, schedule: Q#A X014 (ip), vehicle: methylcellulose (MC)) was 60 % of control. For the same compound, the T/C (dose: 17.3 mg/kg/injection, schedule: Q01DX007 (ip), vehicle: carboxymethylcellulose (CMC)) was 51 % of control, the T/C (dose: 19.0 mg/kg/injection, schedule: Q01DX007 (ip), vehicle: carboxymethylcellulose (CMC)) was 72 % of control and the T/C (dose: 23.2 mg/kg/injection, schedule: Q01DX007 (ip), vehicle: carboxymethylcellulose (CMC)) was 49 % of control. The T/C (dose: 25.0 mg/kg/injection, schedule: Q#A X014 (ip), vehicle: methylcellulose (MC)) was 55 % of control, the T/C (dose: 26.0 mg/kg/injection, schedule: Q01DX007 (ip), vehicle: carboxymethylcellulose (CMC)) was 36 % of control and the T/C (dose: 26.0 mg/kg/injection, schedule: Q#A X014 (ip), vehicle: carboxymethylcellulose (CMC)) was 32 % of control. The T/C (dose: 29.0 mg/kg/injection, schedule: Q#A X014 (ip), vehicle: carboxymethylcellulose (CMC)) was 20 % of control, the T/C (dose: 30.0 mg/kg/injection, schedule: Q01DX007 (ip), vehicle: other) was 78 % of control and the T/C (dose: 37.5 mg/kg/injection, schedule: Q#A X014 (ip), vehicle: methylcellulose (MC)) was 34 % of control. For the same compound, the T/C (dose: 38.6 mg/kg/injection, schedule: Q01DX007 (ip), vehicle: carboxymethylcellulose (CMC)) was 36 % of control, the T/C (dose: 43.5 mg/kg/injection, schedule: Q01DX007 (ip), vehicle: carboxymethylcellulose (CMC)) was 27 % of control and 47 % of control and the T/C [1] was 49 % of control. The T/C (dose: 50.0 mg/kg/injection, schedule: Q#A X014 (ip), vehicle: methylcellulose (MC)) was 14 % of control, the T/C (dose: 58.0 mg/kg/injection, schedule: Q01DX007 (ip), vehicle: carboxymethylcellulose (CMC)) was 14 % of control and 21 % of control and 28 % of control and the T/C (dose: 60.0 mg/kg/injection, schedule: Q01DX007 (ip), vehicle: other) was 33 % of control and 47 % of control. The T/C [2] was 34 % of control and the T/C [3] was 24 % of control.

With `NC1C(O)C(O)C(Nc2ncnc3nc[nH]c23)OC1C(O)CO` (centres undefined) the T/C (dose: 0.44 mg/kg/injection, schedule: Q## X000 (ip), vehicle: carboxymethylcellulose (CMC)) was 100 % of control, the T/C (dose: 0.66 mg/kg/injection, schedule: Q## X000 (ip), vehicle: carboxymethylcellulose (CMC)) was 66 % of control and the T/C (dose: 1.0 mg/kg/injection, schedule: Q## X000 (ip), vehicle: carboxymethylcellulose (CMC)) was 82 % of control. For the same compound, the T/C (dose: 1.5 mg/kg/injection, schedule: Q## X000 (ip), vehicle: carboxymethylcellulose (CMC)) was 72 % of control.

With `CCOc1ccc2nc(S(N)(=O)=O)sc2c1` the T/C (dose: 25.0 mg/kg/injection, schedule: Q01DX007 (ip), vehicle: carboxymethylcellulose (CMC)) was 78 % of control, the T/C (dose: 29.0 mg/kg/injection, schedule: Q01DX007 (ip), vehicle: carboxymethylcellulose (CMC)) was 70 % of control and the T/C [1] was 22 % of control. For the same compound, the T/C (dose: 49.5 mg/kg/injection, schedule: Q#A X014 (ip), vehicle: methylcellulose (MC)) was 29 % of control and 48 % of control, the T/C (dose: 50.0 mg/kg/injection, schedule: Q01DX007 (ip), vehicle: carboxymethylcellulose (CMC)) was 39 % of control and the T/C [2] was 51 % of control. The T/C (dose: 74.0 mg/kg/injection, schedule: Q#A X014 (ip), vehicle: methylcellulose (MC)) was 13 % of control and 22 % of control, the T/C (dose: 99.0 mg/kg/injection, schedule: Q01DX007 (ip), vehicle: carboxymethylcellulose (CMC)) was 43 % of control and the T/C [3] was 34 % of control.

For `CCOC(=O)C1=C(C)NC(C)=C(C(=O)OCC)C1C`, the T/C (dose: 3.1 mg/kg/injection, schedule: Q01DX007 (ip), vehicle: other) was 50 % of control, the T/C (dose: 6.25 mg/kg/injection, schedule: Q01DX007 (ip), vehicle: other) was 33 % of control and the T/C (dose: 31.2 mg/kg/injection, schedule: Q01DX007 (ip), vehicle: other) was 42 % of control. The T/C (dose: 31.25 mg/kg/injection, schedule: Q01DX007 (ip), vehicle: other) was 60 % of control, the T/C (dose: 62.5 mg/kg/injection, schedule: Q01DX007 (oral), vehicle: other) was 57 % of control and the T/C (dose: 62.5 mg/kg/injection, schedule: Q01DX007 (sc), vehicle: other) was 98 % of control. For the same compound, the T/C (dose: 62.5 mg/kg/injection, schedule: Q02DX004 (ip), vehicle: other) was 60 % of control, the T/C (dose: 62.5 mg/kg/injection, schedule: Q03DX003 (ip), vehicle: other) was 60 % of control and the T/C (dose: 100.0 mg/kg/injection, schedule: Q01DX007 (ip), vehicle: other) was 69 % of control. For the same compound, the T/C (dose: 125.0 mg/kg/injection, schedule: Q01DX007 (oral), vehicle: other) was 84 % of control, the T/C (dose: 125.0 mg/kg/injection, schedule: Q01DX007 (sc), vehicle: other) was 57 % of control and the T/C (dose: 125.0 mg/kg/injection, schedule: Q02DX004 (ip), vehicle: other) was 50 % of control. The T/C (dose: 125.0 mg/kg/injection, schedule: Q03DX003 (ip), vehicle: other) was 60 % of control, the T/C (dose: 175.0 mg/kg/injection, schedule: Q01DX007 (ip), vehicle: other) was 29 % of control and the T/C (dose: 250.0 mg/kg/injection, schedule: Q01DX007 (oral), vehicle: other) was 76 % of control. For the same compound, the T/C (dose: 250.0 mg/kg/injection, schedule: Q01DX007 (sc), vehicle: other) was 60 % of control, the T/C (dose: 250.0 mg/kg/injection, schedule: Q02DX004 (ip), vehicle: other) was 36 % of control and the T/C (dose: 250.0 mg/kg/injection, schedule: Q03DX003 (ip), vehicle: other) was 54 % of control.

Reference: PubChem BioAssay AID342 (DTP/NCI, 2004)
